# According to doi:10.1101/2025.03.14.643404, “A Bivalent Molecular Glue Linking Lysine Acetyltransferases to Oncogene-induced Cell Death” (bioRxiv, 2025):
# “Also recorded” adds a separate entry of the source.
# Assays:
# BBC3/PUMA = experiment: Western blot of BBC3/PUMA in SUDHL5; type: cell-based, human; conditions: SUDHL5, 48 hours
# Protocol: Cells were plated at 1M/mL and treated with drug at indicated timepoints and doses. Cells were harvested on ice in RIPA buffer (50mM Tris-HCl pH 8, 150mM NaCl, 1% NP-40, 0.1% DOC, 1% SDS, protease inhibitor cocktail (~20 mg/ml pepstatin, aprotinin, and leupeptin), 1mM DTT) and 1:200 benzonase (Sigma E1014) was added and incubated for 20 mins. After 10 min centrifugation at 14,000g and 4 °C, the supernatant was collected and protein concentration was measured by Bradford. SDS-PAGE analysis was carried out in either 4–12% or 12% Bis-Tris PAGE gels (Thermo NW04120 and NW04127). Antibodies used for immunoblots were: BCL6 (1:1000 v:v, Cell Signaling D65C10), p300 (1:250, Santa Cruz F-4 sc-48343), CBP (1:1000, Cell Signaling D6C5), c-MYC (1:1000, Cell Signaling D84C12), Caspase-3 (1:1000, Cell Signaling 9662), GAPDH (1:2000, Santa Cruz 6C5 sc-32233), BBC3/PUMA (1:1000, Cell Signaling E2P7G), FOXO3 (1:1000, Cell Signaling 75D8), H3K27ac (1:1000, abcam ab4729), H2BK20ac (1:1000, Cell Signaling D709W), H3 (1:10,000, Cell Signaling 1B1B2), H2B (1:10,000, Cell Signaling D2H6), p27/CDKN1B (1:1000, Cell Signaling D69C12), and TP53 (1:1000, Santa Cruz DO-1). ImageStudio (Licor) was used for blot imaging and quantification.
# p300 = molecular target: T1, p300 (Homo sapiens, UniProt P41182+Q09472); experiment: p300 immunoprecipitation-mass spectrometry in SUDHL5; type: cell-based; conditions: SUDHL5, 1 nM, 2 h, vs DMSO
# T1 construct: endogenous in cells; host or cells: SUDHL5
# T1 sequence (Q09472 2-2414 limits assumed, other chains not shown): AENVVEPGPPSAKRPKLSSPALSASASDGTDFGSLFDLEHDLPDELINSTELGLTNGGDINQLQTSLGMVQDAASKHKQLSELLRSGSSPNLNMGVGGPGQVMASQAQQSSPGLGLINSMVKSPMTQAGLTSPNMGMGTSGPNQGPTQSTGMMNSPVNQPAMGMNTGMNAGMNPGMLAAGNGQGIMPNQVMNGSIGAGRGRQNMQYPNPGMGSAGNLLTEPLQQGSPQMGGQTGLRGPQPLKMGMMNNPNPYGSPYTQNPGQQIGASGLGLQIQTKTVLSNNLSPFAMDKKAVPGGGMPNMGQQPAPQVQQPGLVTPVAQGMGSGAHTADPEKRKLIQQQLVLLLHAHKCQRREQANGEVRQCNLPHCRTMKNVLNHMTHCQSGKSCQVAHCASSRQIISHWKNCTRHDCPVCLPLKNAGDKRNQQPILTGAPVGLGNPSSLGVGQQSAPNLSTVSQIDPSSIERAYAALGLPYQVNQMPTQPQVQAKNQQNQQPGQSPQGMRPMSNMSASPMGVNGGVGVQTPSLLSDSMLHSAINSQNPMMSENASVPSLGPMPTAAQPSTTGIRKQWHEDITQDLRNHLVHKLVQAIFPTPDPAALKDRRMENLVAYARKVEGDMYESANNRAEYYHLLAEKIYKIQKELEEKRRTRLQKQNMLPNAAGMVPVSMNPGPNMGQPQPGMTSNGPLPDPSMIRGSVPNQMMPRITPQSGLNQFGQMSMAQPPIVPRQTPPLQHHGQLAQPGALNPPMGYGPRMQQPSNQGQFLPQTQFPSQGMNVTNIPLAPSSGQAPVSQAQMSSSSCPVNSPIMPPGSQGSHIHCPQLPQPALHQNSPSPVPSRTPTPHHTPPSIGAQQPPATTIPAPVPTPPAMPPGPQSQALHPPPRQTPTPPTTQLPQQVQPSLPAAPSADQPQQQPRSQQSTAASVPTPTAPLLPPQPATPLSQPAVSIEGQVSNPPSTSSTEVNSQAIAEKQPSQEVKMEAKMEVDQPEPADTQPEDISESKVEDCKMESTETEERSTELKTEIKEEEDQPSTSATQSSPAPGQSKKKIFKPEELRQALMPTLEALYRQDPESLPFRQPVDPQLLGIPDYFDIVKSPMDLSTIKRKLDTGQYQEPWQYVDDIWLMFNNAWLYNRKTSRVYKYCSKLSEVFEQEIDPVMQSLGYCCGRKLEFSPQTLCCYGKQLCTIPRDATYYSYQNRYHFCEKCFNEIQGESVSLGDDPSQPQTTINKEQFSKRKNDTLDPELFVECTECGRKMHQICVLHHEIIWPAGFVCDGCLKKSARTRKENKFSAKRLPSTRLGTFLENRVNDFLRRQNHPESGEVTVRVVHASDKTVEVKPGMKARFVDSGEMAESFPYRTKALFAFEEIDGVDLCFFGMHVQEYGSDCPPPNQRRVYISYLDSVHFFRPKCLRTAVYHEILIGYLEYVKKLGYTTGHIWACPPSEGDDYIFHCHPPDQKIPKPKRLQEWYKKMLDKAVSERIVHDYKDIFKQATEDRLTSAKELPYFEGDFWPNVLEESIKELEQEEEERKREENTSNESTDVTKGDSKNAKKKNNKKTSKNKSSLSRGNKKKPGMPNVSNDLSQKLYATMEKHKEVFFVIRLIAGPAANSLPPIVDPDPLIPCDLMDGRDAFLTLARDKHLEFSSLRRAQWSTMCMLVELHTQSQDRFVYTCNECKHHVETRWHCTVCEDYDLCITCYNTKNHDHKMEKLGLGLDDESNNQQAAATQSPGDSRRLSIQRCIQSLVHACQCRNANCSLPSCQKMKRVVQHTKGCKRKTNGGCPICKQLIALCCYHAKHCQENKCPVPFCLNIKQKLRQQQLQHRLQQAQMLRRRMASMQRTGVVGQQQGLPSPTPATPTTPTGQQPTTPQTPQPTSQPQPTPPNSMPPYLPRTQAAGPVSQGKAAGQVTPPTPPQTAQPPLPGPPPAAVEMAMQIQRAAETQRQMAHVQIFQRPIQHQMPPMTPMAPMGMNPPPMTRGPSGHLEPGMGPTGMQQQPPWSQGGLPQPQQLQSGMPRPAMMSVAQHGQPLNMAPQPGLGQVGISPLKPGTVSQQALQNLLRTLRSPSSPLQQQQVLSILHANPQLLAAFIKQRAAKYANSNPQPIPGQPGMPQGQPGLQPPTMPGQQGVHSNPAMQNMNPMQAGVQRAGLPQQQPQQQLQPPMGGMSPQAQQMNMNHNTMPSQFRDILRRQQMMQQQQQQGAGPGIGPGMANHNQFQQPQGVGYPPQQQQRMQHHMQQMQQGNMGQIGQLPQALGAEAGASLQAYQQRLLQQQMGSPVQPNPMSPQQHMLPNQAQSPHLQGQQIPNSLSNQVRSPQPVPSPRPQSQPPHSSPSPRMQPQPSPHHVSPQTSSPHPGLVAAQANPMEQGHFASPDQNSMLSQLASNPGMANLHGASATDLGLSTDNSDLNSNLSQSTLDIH
# Protocol: 50 million FLAG-BCL6 knock-in SUDHL5 cells were treated compound or DMSO (0.1%) at indicated doses for 2 hours. Cells were lysed in NE10 buffer (20 mM HEPES (pH 7.5), 10 mM KCl, 1 mM MgCl2, 0.1% Triton X-100 (v/v), protease inhibitors (Roche), 15 mM ß-mercaptoethanol), dounced 15 times and pelleted 5 min at 500 g. Nuclei were washed in NE10 buffer and then digested with 250 units benzonase (Millipore) for 30 min rotating at 25°C. Nuclei were resuspended in NE150 buffer (NE10 supplemented with 150mM NaCl) and incubated for 20 min. Lysates were pelleted at 16,000 g for 20 min at 4°C and supernatants were immunoprecipitated by incubating with 2.5 μg FLAG M2 antibody (F1804, Millipore-Sigma) or 2.5 μg p300 (A300–358A, Bethyl Laboratories) antibody with Dynabeads Protein G (Thermo Fisher) overnight at 4°C. The IP fraction was recovered by magnetic separation followed by three washes with NE10 buffer containing 150mM–300mM NaCl but without Triton-X. For mass spectrometry analysis, the IP was then eluted from the beads with Ammonium Hydroxide, pH 11–12; 3% v/v. […]
# The reconstituted desalted peptides were then analyzed using a nanoElute 2 UHPLC (Bruker Daltonics, Bremen, Germany) coupled to a timsTOF HT (Bruker Daltonics, Bremen, Germany) via a CaptiveSpray nano-electrospray source. […]
# [1] = tested on: B and T cells isolated from primary tonsillar lymphocytes; experiment: Viability of primary tonsillar lymphocytes, 72 h; type: cell-based, human; conditions: primary tonsillar lymphocytes of two donors, compared with SUDHL5
smiles,measurement,setting,value
CNC(=O)COc1cc2cc(Nc3nc(N4CCC(C(=O)N5CCN(CCC(=O)N6CCC(n7nc(N8CCCc9cc(-c%10cnn(C)c%10)c(C(F)F)cc98)c8c7CCN(C(=O)NC)C8)CC6)CC5)CC4)ncc3Cl)cc(OC)c2n(C)c1=O [TCIP3],PUMA expression increase,BBC3/PUMA,more than 6 fold
same,"enrichment of BCL6 in p300 IP, log2(fold change)",p300,4.0
same,cytotoxicity,[1],substantially reduced cytotoxicity; also recorded: without exhibiting toxicity
